Data taken from patent US20150366962A1 (priority 2014, published 2015).

Tested on: H5 (VN/04), H11 and H12 subtype HAs
Set-up: species or system mice
Details: mouse, in vivo

Structure (SMILES) | IgG subtype profile (IgG2a/IgG1) to H5 subtype HA | IgG titers reacting to H11 subtype versus unadjuvanted control | IgG titers reacting to H12 subtype versus unadjuvanted control | serum IgG reactivity to the H5 subtype HA (VN/04) versus no adjuvant
CCCCCCCCC=CCCCCCCCC(=O)OCC(COP(=O)(O)OCCNC(=O)c1ccc(Cn2c(=O)[nH]c3c(N)nc(OCCOC)nc32)cc1)OC(=O)CCCCCCCC=CCCCCCCCC (centres unmarked) [Compound 1V270] | inducing IgG2a | significantly better than the unadjuvanted control | significantly better than the unadjuvanted control | significantly higher reactivity
Cn1c2ccccc2c2nc(SCC(=O)NC3CCCCC3)n(-c3ccccc3)c(=O)c21 [Compound 1Z105] | induced primarily IgG1 | – | – | –
